According to patent EP3156398A1, “AGONISTS OF THE CHEMOKINE RECEPTOR CXCR3” (Friedrich-Alexander-Universität Erlangen-Nürnberg, priority 2015, dated 2017):

Experiments:
[1] = system: activated T-cells; details: cited from earlier work
[2] = target: T1, CXCR3-PK2 (Homo sapiens, UniProt P49682); assay: β-arrestin 2 recruitment assay (PathHunter, DiscoveRx), CXCR3-PK2 construct; format: cell-based; details: for Emax: % of CXCL11 mediated effect, read-out: CXCR3-PK2 efficacy (%) (converted); for Emax / CXCR3-PK2 pEC50 ± SEM: CXCR3-PK2; for CXCR3-PK2 pEC50 ± SEM: HEK293-T cells, PathHunter
T1 construct: expressed in transfected cells
T1 sequence (P49682 1-368): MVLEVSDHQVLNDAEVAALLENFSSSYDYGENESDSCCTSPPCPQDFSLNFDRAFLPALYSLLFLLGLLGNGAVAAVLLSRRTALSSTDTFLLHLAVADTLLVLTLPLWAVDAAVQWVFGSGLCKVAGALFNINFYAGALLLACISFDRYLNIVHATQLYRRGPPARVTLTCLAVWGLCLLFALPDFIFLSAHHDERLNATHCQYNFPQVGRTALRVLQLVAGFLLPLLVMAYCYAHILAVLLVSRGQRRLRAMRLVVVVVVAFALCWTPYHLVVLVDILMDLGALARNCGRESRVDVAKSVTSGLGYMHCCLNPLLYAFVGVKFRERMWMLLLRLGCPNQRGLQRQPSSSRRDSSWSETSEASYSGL
Experimental: (§1) β-arrestin 2 recruitment assay: The measurement of β-arrestin recruitment was performed utilizing the PathHunter assay purchased from DiscoveRx (DiscoveRx, Birmingham, U.K.) according to the manufacturer's protocol. HEK293 cells stably expressing β-gal enzyme acceptor were transiently transfected with the ProLink (PK1) tagged wildtype CXCR3 receptor using the TransIT-293 transfection reagent from Mirus (purchased from MoBiTec, Goettingen, Germany). The assay was carried out in 384-well plates containing 2000 cells in 20 µL. After incubation at 37°C (5% CO2, 95% relative humidity) overnight, various concentrations of test compounds or CXCL11 (prepared in PBS, pH 7.4, containing 0.20% BSA) were added and the incubation continued for 4 h. Detection mix was then added and incubated for further 60 min at room temperature. Chemiluminescence was determined with a microplate reader Clariostar (BMG labtech, Ortenberg, Germany).
(§2) The ability of the novel ligands according to the present invention to induce CXCR3-mediated β-arrestin 2 recruitment was investigated in the assay system PathHunter (DiscoveRx), which detects the recruitment of β-amestin 2 to the activated receptor using β-galactosidase (β-gal) enzyme fragment complementation. The inventors used two different ProLink tags, ProLink1 (PK1) and ProLink2 (PK2), of which PK2 has higher affinity for the enzyme acceptor to detect weak protein-protein interactions. The CXCR3-PK2 construct is readily able to detect the differences in the propensity of CXCL11 and CXCL10 to induce β-arrestin 2 recruitment at CXCR3. […] Table 3. Ability of the 46/VUF10661 based positive allosteric modulators to activate the CXCR3 as measured in the β-arrestin 2 recruitment assay (PathHunter, DiscoveRx).[a]
To investigate the efficacy of identified partial agonists in the assay format, the inventors used the CXCR3-PK2 construct, which is characterized by higher sensitivity to detect β-arrestin 2 recruitment. The compounds which appeared as weak partial agonists under CXCR3-PK1 conditions appeared as strong partial agonists under CXCR3-PK2 conditions with the efficacy increased up to 80% (Table 4). FAUC1036 reached the efficacy of 66%. […] Table 4. Ability of the compound 5 based positive allosteric modulators to activate the CXCR3 as measured in the β-arrestin 2 recruitment assay (PathHunter, DiscoveRx).[a]

[3] = target: T2, CXCR3 (Homo sapiens, UniProt P49682); assay: [35S]GTPγS incorporation assay; format: biochemical; details: for CXCR3 Efficacy (%) ± SEM / Emax: % of CXCL11 mediated effect; for CXCR3 Efficacy (%) ± SEM / CXCR3 pEC50 ± SEM / Emax: membrane preparations of HEK293T stably expressing CXCR3; for CXCR3 pEC50 ± SEM: mean of three experiments in triplicate; for Emax: read-out: CXCR3 Efficacy (%) ± SEM
T2 construct: expressed in transfected cells; host or cells: HEK293 / HEK293T cells, stably transfected; membrane preparations
T2 sequence (P49682 1-368): T1 sequence (P49682 1-368)
Experimental: Membrane preparation for allosteric radioligand RAMX3 displacement and [^35S]GTPγS incorporation assays: The human embryonic kidney (HEK) cells stably expressing the human CXCR3 receptor were cultured in 150-mm cell culture plates in DMEM/F-12 supplemented with 10% fetal bovine serum (FBS), 2 mM L-glutamine, 1% penicillin-streptomycin, 300 µgmL^-1 Zeocin and incubated at 37 °C in a humid atmosphere with 5% CO2. At 100% confluency cells were washed with PBS twice, treated with Tris EDTA buffer (10 mM Tris, 0.5 mM EDTA, 5 mM KCl, 140 mM NaCl, pH 7.4), and harvested using a cell scraper. Cells were pelleted at 1100×g for 8 min at 4 °C, resuspended in Tris-EDTA-MgCl2 buffer (50mM Tris, 5 mM EDTA, 1.5 mM CaCl2, 5 mM MgCl2, 5 mM KCl, 120 mM NaCl, pH 7.4) and followed by lysis with an Ultra-Turrax. After centrifugation at 50,000•g, at 4°C for 18 min the membranes were resuspended in the binding buffer (50 mM Tris, 1 mM EDTA, 5 mM MgCl2 and subsequently homogenized with a glass-Teflon homogenizer (20 strokes). The homogenized membranes were shock-frozen in liquid nitrogen and stored at -80°C. The protein concentration was determined with the Lowry method with bovine serum albumin used as a standard.^35
[^35S]GTPγS incorporation assay: The [^35S]GTPγS incorporation assay was performed on membrane preparations of stably transfected HEK293 cells that expressed the CXCR3 receptor. The assay was carried out in 96-well plates at the final volume of 200 µL. The incubation buffer contained 20 mM HEPES, 10 mM MgCl2•6H20,100 mM NaCl and 100 mg/L saponin (pH 7.4). Membranes (30 µgmL^-1 of membrane protein), various concentrations of test compound and CXCL11, and 1 µM GDP were preincubated in the absence of [^35S]GTPγS for 30 min at 37 °C. After the addition of 0.10 nM [^35S]GTPγS membranes were incubated for additional 30 min at 37 °C. Incubation was terminated by filtration through Whatman GF/B filters soaked with ice cold PBS. The filter-bound radioactivity was measured as described above. Three to four experiments per compound were performed with each concentration in triplicate.
The activation of G proteins was explored in terms of CXCR3 mediated [^35S]GTPγS incorporation. In the [^35S]GTPγS incorporation assay the membrane preparations of HEK293T cells stably expressing CXCR3 were used. The activation of G proteins was monitored as the incorporation of [^35S]GTPγS and thus increase in the incorporated radioactivity. The potency and efficacy of the novel compounds was first compared to the reference compound 46/VUF10661. […] Table 1. The ability of the 46/VUF10661 based positive allosteric modulators to activate CXCR3 as measured in the [35S]GTPγS incorporation assay.[a]

[4] = target: T3, CXCR3-PK1 (Homo sapiens, UniProt P49682); assay: β-arrestin 2 recruitment assay (PathHunter, DiscoveRx), CXCR3-PK1 construct; format: cell-based; details: for Emax: % of CXCL11 mediated effect, read-out: CXCR3-PK1 efficacy (%) (converted); for Emax / CXCR3-PK1 pEC50 ± SEM: CXCR3-PK1; for CXCR3-PK1 pEC50 ± SEM: HEK293-T cells, PathHunter, two to three experiments in triplicate
T3 construct: expressed in transfected cells; host or cells: HEK293 cells stably expressing beta-gal enzyme acceptor (PathHunter, DiscoveRx), transiently transfected
T3 sequence (P49682 1-368): T1 sequence (P49682 1-368)
Experimental: as §1, §2

## NC(N)=NCCC[C@H](NC(=O)[C@@H]1Cc2ccccc2CN1C(=O)CCC(=O)c1ccccc1)C(=O)NCC1CCCCC1 [PS372424]
[1]
  influence on CXCL11 induced migration in activated T-cells: found to antagonize CXCL11 induced migration

## CC(C)(C)OC(=O)N[C@H](CCCCNC(=O)[C@@H]1Cc2ccccc2CN1C(=O)CCC(=O)c1ccccc1)C(=O)NCC(c1ccccc1)c1ccccc1 [Compound 34, Tert-butyl ((R)-1-((2,2-diphenylethyl)amino)-1-oxo-6-((S)-2-(4-oxo-4-phenylbutanoyl)-1,2,3,4-tetrahydroisoquinoline-3-carboxamido)hexan-2-yl)carbamate]
[2]
  β-arrestin 2 recruitment agonism using PK2 tag (result in words): reached the levels of full agonism
  Emax: 88%
  CXCR3-PK2 pEC50 ± SEM: 6.86±0.19
[3]
  CXCR3 Efficacy (%) ± SEM: No effect
  CXCR3 pEC50 ± SEM: No effect
[3]; [35S]GTPγS incorporation
  CXCR3 mediated G protein activation (result in words): failed to induce CXCR3 mediated G protein activation
[4]
  Emax: 16%
  CXCR3-PK1 pEC50 ± SEM: 6.95±0.50

## NCCCC[C@@H](NC(=O)[C@@H]1Cc2ccccc2CN1C(=O)CCC(=O)c1ccccc1)C(=O)NCC(c1ccccc1)c1ccccc1.O=C(O)C(F)(F)F [Compound 47, (R)-6-((2,2-diphenylethyl)amino)-6-oxo-5-((S)-2-(4-oxo-4-phenylbutanoyl)-1,2,3,4-tetrahydroisoquinoline-3-carboxamido)hexan-1-aminium 2,2,2-trifluoroacetate]
[2]
  Emax: 198%
  CXCR3-PK2 pEC50 ± SEM: 6.12±0.11
[3]
  Emax: 85 ± 5%
  CXCR3 pEC50 ± SEM: 5.94±0.09
[4]
  Emax: 108%
  CXCR3-PK1 pEC50 ± SEM: 5.96±0.08

## N[C@@H](CCCCNC(=O)[C@@H]1Cc2ccccc2CN1C(=O)CCCC(=O)c1ccccc1)C(=O)NCC(c1ccccc1)c1ccccc1.O=C(O)C(F)(F)F [Compound 26, (S)-1-((2,2-diphenylethyl)amino)-1-oxo-6-((S)-2-(5-oxo-5-phenylpentanoyl)-1,2,3,4-tetrahydroisoquinoline-3-carboxamido)hexan-2-aminium 2,2,2-trifluoroacetate]
[2]
  Emax: 91%
  CXCR3-PK2 pEC50 ± SEM: 6.90±0.21
[3]
  CXCR3 Efficacy (%) ± SEM: No effect
  CXCR3 pEC50 ± SEM: No effect
[4]
  Emax: 20%
  CXCR3-PK1 pEC50 ± SEM: 6.73±0.22

## CC(C)(C)OC(=O)N[C@@H](CCCCNC(=O)[C@@H]1Cc2ccccc2CN1C(=O)CCC(=O)O)C(=O)NCC(c1ccccc1)c1ccccc1 [Compound 27, 4-((S)-3-(((S)-5-((tert-butoxycarbonyl)amino)-6-((2,2-diphenylethyl)amino)-6-oxohexyl)carbamoyl)-3,4-dihydroisoquinolin-2(1H)-yl)-4-oxobutanoic acid]
[2]
  CXCR3-PK2 pEC50 ± SEM: No effect
[3]
  CXCR3 Efficacy (%) ± SEM: No effect
  CXCR3 pEC50 ± SEM: No effect
[4]
  β-arrestin 2 recruitment, intrinsic agonism (result in words): no agonistic effect
  CXCR3-PK1 pEC50 ± SEM: No effect

## N[C@@H](CCCCNC(=O)[C@@H]1Cc2ccccc2CN1)C(=O)NCC(c1ccccc1)c1ccccc1.O=C(O)C(F)(F)F.O=C(O)C(F)(F)F [Compound 28, (S)-3-(((S)-5-ammonio-6-((2,2-diphenylethyl)amino)-6-oxohexyl)carbamoyl)-1,2,3,4-tetrahydroisoquinolin-2-ium 2,2,2-trifluoroacetate]
[2]
  Emax: 85%
  CXCR3-PK2 pEC50 ± SEM: 6.55±0.26
[3]
  Emax: 40 ± 7%
  CXCR3 pEC50 ± SEM: 5.65±0.23
[4]
  Emax: 14%
  CXCR3-PK1 pEC50 ± SEM: 6.80±0.45

## CC(C)(C)OC(=O)NCCCC[C@@H](NC(=O)[C@@H]1Cc2ccccc2CN1C(=O)CCC(=O)c1ccccc1)C(=O)NCC(c1ccccc1)c1ccccc1 [Compound 45, Tert-butyl ((R)-6-((2,2-diphenylethyl)amino)-6-oxo-5-((S)-2-(4-oxo-4-phenylbutanoyl)-1,2,3,4-tetrahydroisoquinoline-3-carboxamido)hexyl)carbamate]
[2]
  Emax: 30%
  CXCR3-PK2 pEC50 ± SEM: 7.23±0.69
[3]
  Emax: 33 ± 7%
  CXCR3 pEC50 ± SEM: 5.97±0.34
[4]
  Emax: ~36%
  CXCR3-PK1 pEC50 ± SEM: 6.63±0.17

## CC(C)(C)OC(=O)N[C@@H](CCCCNC(=O)[C@@H]1Cc2ccccc2CN1C(=O)CCc1ccccc1)C(=O)NCC(c1ccccc1)c1ccccc1 [Compound 23, Tert-butyl((S)-1-((2,2-diphenylethyl)amino)-1-oxo-6-((S)-2-(3-phenylpropanoyl)-1,2,3,4-tetrahydroisoquinoline-3-carboxamido)hexan-2-yl)carbamate]
[2]
  Emax: 29%
  CXCR3-PK2 pEC50 ± SEM: 6.71±0.30
[3]
  Emax: 30 ± 17%
  CXCR3 pEC50 ± SEM: 5.07±0.50
[4]
  Emax: 19%
  CXCR3-PK1 pEC50 ± SEM: 7.21±0.17
